Assay results reported in US9469650B2, “Melampomagnolide B derivatives” (BOARD OF TRUSTEES OF THE UNIVERSITY OF ARKANSAS, priority 2013, dated 2016).

What was measured:
NCI-H23 = assay: panel of 60 human tumor cell lines, growth inhibition (Non-Small Cell Lung Cancer); conditions: Homo sapiens; for GI50: NCI-H23; for CC50: NCI-H23, read-out: LC50; for IC (TGI): NCI-H23, read-out: TGI
IGROV1 = assay: panel of 60 human tumor cell lines, growth inhibition (Ovarian Cancer); conditions: Homo sapiens; for GI50: IGROV-1; for CC50: IGROV-1, read-out: LC50
A549/ATCC = assay: panel of 60 human tumor cell lines, growth inhibition (Non-Small Cell Lung Cancer); conditions: Homo sapiens; for CC50: A549, read-out: LC50; for IC (TGI): A549, read-out: TGI
MDA-MB-231/ATCC = assay: panel of 60 human tumor cell lines, growth inhibition (Breast Cancer); conditions: Homo sapiens; for GI50: MDA-MB-231; for CC50: MDA-MB-231, read-out: LC50; for IC (TGI): MDA-MB-231, read-out: TGI
SF-268 = assay: panel of 60 human tumor cell lines, growth inhibition (CNS Cancer); conditions: Homo sapiens; for GI50: SF-268; for CC50: SF-268, read-out: LC50; for IC (TGI): SF-268, read-out: TGI
CCRF-CEM = assay: panel of 60 human tumor cell lines, growth inhibition (Leukemia); conditions: Homo sapiens; for CC50: read-out: LC50; for IC (TGI): read-out: TGI
MCF7 = assay: panel of 60 human tumor cell lines, growth inhibition (Breast Cancer); conditions: Homo sapiens; for GI50: MCF7, MCF7; for CC50: MCF7, read-out: LC50; for IC (TGI): MCF7, read-out: TGI
OVCAR-5 = assay: panel of 60 human tumor cell lines, growth inhibition (Ovarian Cancer); conditions: Homo sapiens; for GI50: OVCAR-5; for CC50: OVCAR-5, read-out: LC50; for IC (TGI): OVCAR-5, read-out: TGI
OVCAR-8 = assay: as above; conditions: Homo sapiens; for GI50: OVCAR-8; for CC50: OVCAR-8, read-out: LC50; for IC (TGI): OVCAR-8, read-out: TGI
HT29 = assay: panel of 60 human tumor cell lines, growth inhibition (Colon Cancer); conditions: for Percent Growth: HT29; for GI50 / CC50 / IC (TGI): Homo sapiens; for GI50: HT-29; for CC50: HT-29, read-out: LC50; for IC (TGI): HT-29, read-out: TGI
SK-MEL-2 = assay: panel of 60 human tumor cell lines, growth inhibition (Melanoma); conditions: Homo sapiens; for GI50: SK-MEL-2; for CC50: SK-MEL-2, read-out: LC50; for IC (TGI): SK-MEL-2, read-out: TGI
NCI-H522 = assay: panel of 60 human tumor cell lines, growth inhibition (Non-Small Cell Lung Cancer); conditions: Homo sapiens; for GI50: NCI-H522; for CC50: NCI-H522, read-out: LC50; for IC (TGI): NCI-H522, read-out: TGI
SK-OV-3 = assay: panel of 60 human tumor cell lines, growth inhibition (Ovarian Cancer); conditions: Homo sapiens; for GI50: SK-OV-3; for CC50: SK-OV-3, read-out: LC50; for IC (TGI): SK-OV-3, read-out: TGI
LOX IMVI = assay: panel of 60 human tumor cell lines, growth inhibition (Melanoma); conditions: Homo sapiens; for CC50: read-out: LC50; for IC (TGI): read-out: TGI
CAKI-1 = assay: panel of 60 human tumor cell lines, growth inhibition (Renal Cancer); conditions: Homo sapiens; for GI50: CAKI-1; for CC50: CAKI-1, read-out: LC50; for IC (TGI): CAKI-1, read-out: TGI
M14 = assay: panel of 60 human tumor cell lines, growth inhibition (Melanoma); conditions: Homo sapiens; for GI50: M14; for CC50: M14, read-out: LC50; for IC (TGI): M14, read-out: TGI
TK-10 = assay: panel of 60 human tumor cell lines, growth inhibition (Renal Cancer); conditions: Homo sapiens; for GI50: TK-10, TK-10; for CC50: TK-10, read-out: LC50; for IC (TGI): TK-10, read-out: TGI
SW-620 = assay: panel of 60 human tumor cell lines, growth inhibition (Colon Cancer); conditions: Homo sapiens; for GI50: SW-620, SW-620; for CC50: SW-620, read-out: LC50; for IC (TGI): SW-620, read-out: TGI

C=C1C(=O)O[C@H]2[C@H]1CC/C(COC(=O)Nc1n[nH]c(SC)n1)=C\CC[C@@]1(C)O[C@@H]21 [JVM 64, ((1aR,7aS,10aS,10bS,E)-1a-methyl-8-methylene-9-oxo-1a,2,3,6,7,7a,8,9,10a,10b-decahydrooxireno[2′,3′:9,10]cyclodeca[1,2-b]furan-5-yl)methyl-(5-(methylthio)-1H-1,2,4-triazol-3-yl)carbamate] showed a GI50 (NCI-H23) of 3.21 µM, a CC50 (NCI-H23) of 63.6 µM and an IC (TGI) (NCI-H23) of 14.1 µM. It also gave a GI50 (IGROV1) of 3.66 µM, a CC50 (IGROV1) of 57.8 µM and an IC (TGI) (IGROV1; IGROV-1, read-out: TGI) of 14.2 µM. The GI50 (A549/ATCC; A549) was 4.19 µM, the CC50 (A549/ATCC) was 83.5 µM and the IC (TGI) (A549/ATCC) was 19.9 µM. It also gave a GI50 (MDA-MB-231/ATCC) of 2.93 µM, a CC50 (MDA-MB-231/ATCC) of 37.7 µM and an IC (TGI) (MDA-MB-231/ATCC) of 9.22 µM. For the same molecule, the GI50 (SF-268) was 3.73 µM, the CC50 (SF-268) was 52.6 µM and the IC (TGI) (SF-268) was 14.7 µM. It also gave a GI50 (CCRF-CEM; 5-dose assay) of 0.62 µM, a GI50 (CCRF-CEM; NCI five dose) of 0.626 µM and a GI50 (CCRF-CEM; leukemia cell line CCRF-CEM) of 0.62 µM. The CC50 (CCRF-CEM) was 55.8 µM, the IC (TGI) (CCRF-CEM) was 3.56 µM and the GI50 (MCF7; 5-dose assay) was 1.33 µM. It also gave a GI50 (MCF7; NCI five dose) of 1.33 µM, a CC50 (MCF7) of 70.2 µM and an IC (TGI) (MCF7) of 10.5 µM. For the same molecule, the GI50 (OVCAR-5) was 2.18 µM, the CC50 (OVCAR-5) was 24 µM and the IC (TGI) (OVCAR-5) was 5.92 µM. The GI50 (OVCAR-8) was 2.71 µM, the CC50 (OVCAR-8) was 51.6 µM and the IC (TGI) (OVCAR-8) was 12.1 µM. The “Percent Growth” value (HT29; Log10 Concentration −4.0) was −79%, the “Percent Growth” value (HT29; Log10 Concentration −5.0) was −11% and the “Percent Growth” value (HT29; Log10 Concentration −6.0) was 92%. The “Percent Growth” value (HT29; Log10 Concentration −7.0) was 101%, the “Percent Growth” value (HT29; Log10 Concentration −8.0) was 102% and the GI50 (HT29) was 2.55 µM. The CC50 (HT29) was 37.4 µM, the IC (TGI) (HT29) was 7.77 µM and the GI50 (SK-MEL-2) was 3.56 µM. For the same molecule, the CC50 (SK-MEL-2) was 62.2 µM, the IC (TGI) (SK-MEL-2) was 13.1 µM and the GI50 (NCI-H522) was 1.26 µM. It also gave a CC50 (NCI-H522) of 7.87 µM, an IC (TGI) (NCI-H522) of 3.17 µM and a GI50 (SK-OV-3) of 11.7 µM. The CC50 (SK-OV-3) was greater than 100 µM, the IC (TGI) (SK-OV-3) was 35.8 µM and the GI50 (LOX IMVI; 5-dose assay) was 1.95 µM. For the same molecule, the GI50 (LOX IMVI; NCI five dose) was 1.95 µM, the CC50 (LOX IMVI) was 19.8 µM and the IC (TGI) (LOX IMVI) was 5.03 µM. For the same molecule, the GI50 (CAKI-1) was 1.99 µM, the CC50 (CAKI-1) was 36.6 µM and the IC (TGI) (CAKI-1) was 6.93 µM. For the same molecule, the GI50 (M14) was 1.59 µM, the CC50 (M14) was 7.09 µM and the IC (TGI) (M14) was 3.36 µM. The GI50 (TK-10; 5-dose assay) was 2.51 µM, the GI50 (TK-10; NCI five dose) was 2.51 µM and the CC50 (TK-10) was 27.4 µM. The IC (TGI) (TK-10) was 7.16 µM, the GI50 (SW-620; 5-dose assay) was 1.12 µM and the GI50 (SW-620; NCI five dose) was 1.12 µM. The CC50 (SW-620) was 8.49 µM and the IC (TGI) (SW-620) was 3.09 µM.

In the case of C=C1C(=O)O[C@H]2[C@H]1CC/C(COC(=S)n1ccnc1)=C\CC[C@@]1(C)O[C@@H]21 [JVM 66], the GI50 (NCI-H23) is reported as 13.5 µM, the CC50 (NCI-H23) is reported as greater than 100 µM and the IC (TGI) (NCI-H23) is reported as 59.8 µM. The GI50 (IGROV1) was 9.04 µM, the CC50 (IGROV1) was greater than 100 µM and the CC50 (A549/ATCC) was greater than 100 µM. It also gave an IC (TGI) (A549/ATCC) of 106 µM, a GI50 (MDA-MB-231/ATCC) of 15.8 µM and a CC50 (MDA-MB-231/ATCC) of 75.7 µM. The IC (TGI) (MDA-MB-231/ATCC) was 34.6 µM, the GI50 (SF-268) was 21.9 µM and the CC50 (SF-268) was greater than 100 µM. For the same molecule, the IC (TGI) (SF-268) was 67.7 µM, the GI50 (CCRF-CEM; NCI five dose) was 3.38 µM and the CC50 (CCRF-CEM) was greater than 100 µM. For the same molecule, the IC (TGI) (CCRF-CEM) was 16.6 µM, the GI50 (MCF7; NCI five dose) was 4.19 µM and the CC50 (MCF7) was 76.7 µM. It also gave an IC (TGI) (MCF7) of 19.8 µM, a GI50 (OVCAR-5) of 13.5 µM and a CC50 (OVCAR-5) of 78.1 µM. It also gave an IC (TGI) (OVCAR-5) of 1760 µM, a GI50 (OVCAR-8) of 11.4 µM and a CC50 (OVCAR-8) greater than 100 µM. For the same molecule, the IC (TGI) (OVCAR-8) was greater than 100 µM, the “Percent Growth” value (HT29; Log10 Concentration −4.0) was −70% and the “Percent Growth” value (HT29; Log10 Concentration −5.0) was 60%. For the same molecule, the “Percent Growth” value (HT29; Log10 Concentration −6.0) was 105%, the “Percent Growth” value (HT29; Log10 Concentration −7.0) was 100% and the “Percent Growth” value (HT29; Log10 Concentration −8.0) was 99%. It also gave a GI50 (HT29) of 12 µM, a CC50 (HT29) of 69.9 µM and an IC (TGI) (HT29) of 29 µM. For the same molecule, the GI50 (SK-MEL-2) was 16.4 µM, the CC50 (SK-MEL-2) was 93 µM and the IC (TGI) (SK-MEL-2) was 39.6 µM. It also gave a GI50 (NCI-H522) of 5.19 µM, a CC50 (NCI-H522) of 66.9 µM and an IC (TGI) (NCI-H522) of 21.3 µM. It also gave a GI50 (SK-OV-3) of 61.4 µM, a CC50 (SK-OV-3) greater than 100 µM and an IC (TGI) (SK-OV-3) greater than 100 µM. The GI50 (LOX IMVI; NCI five dose) was 3.23 µM, the CC50 (LOX IMVI) was 43.1 µM and the IC (TGI) (LOX IMVI) was 11.8 µM. For the same molecule, the GI50 (CAKI-1) was 12.6 µM, the CC50 (CAKI-1) was 73.8 µM and the IC (TGI) (CAKI-1) was 30.5 µM. It also gave a GI50 (M14) of 12.6 µM, a CC50 (M14) of 89.2 µM and an IC (TGI) (M14) of 33.6 µM. For the same molecule, the GI50 (TK-10; NCI five dose) was 10.5 µM, the CC50 (TK-10) was 58.2 µM and the IC (TGI) (TK-10) was 24.8 µM. It also gave a GI50 (SW-620; NCI five dose) of 4.86 µM, a CC50 (SW-620) of 78.3 µM and an IC (TGI) (SW-620) of 21.7 µM.
